Our source for the Ratio Ki and Ki values is ChEMBL document CHEMBL4706576, “Tricyclic heterocycles display diverse sensitivity to the A147T TSPO polymorphism” (Eur J Med Chem, 2020).

The species named for test [1] is Homo sapiens. In words: Selectivity index, ratio of Ki for TSPO A147T mutant (unknown origin) to Ki for wild type TSPO (unknown origin).
Test [2] addresses Translocator protein (Homo sapiens, UniProt P30536). Description: Displacement of [3H]-PK11195 from wild type TSPO (unknown origin) expressed in human HEK293T cells assessed as inhibitory constant incubated for 90 mins by microbeta scintillation counting method. Type of test: cell-based.

Each structure is given as a SMILES string. Where only a bound is given, the exact number is not on record here.

Translocator protein, sequence (P30536 whole entry): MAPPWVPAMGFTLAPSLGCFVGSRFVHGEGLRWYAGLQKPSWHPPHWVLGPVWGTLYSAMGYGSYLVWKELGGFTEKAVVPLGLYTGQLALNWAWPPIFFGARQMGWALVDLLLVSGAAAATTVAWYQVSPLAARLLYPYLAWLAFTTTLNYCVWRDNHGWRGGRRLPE

As for `CN(Cc1ccccc1)C(=O)Cn1c2ccccc2c2ccccc21`, the Ratio Ki in test [1] was 2.5.

Take `COc1ccc(-c2nn3c(C)cc(C)nc3c2CC(=O)N(C)C)cc1`: the Ki in test [2] came out at 338 nM. For the same compound, the Ratio Ki in test [1] amounted to 1.7.

Take `CN(Cc1ccccc1)C(=O)CN1c2ccccc2NC(=O)c2ccccc21`: the Ki in test [2] stood at 76.8 nM. The Ratio Ki in test [1] amounted to 2.1.

As for `CCN(Cc1ccccc1)C(=O)CN1Cc2cnn(C)c2Nc2ccccc21`, in test [2], the Ki worked out at 41.3 nM. For the same compound, the Ratio Ki in test [1] is 5.5.

`COc1ccc(-c2nn3c(C)cc(C)nc3c2CC(=O)N(C)Cc2ccccc2)cc1`: the Ki in test [2] worked out at 9.3 nM. Further, the Ratio Ki in test [1] worked out at 2.9.

As to `CCN(CC)C(=O)CN1c2ccccc2NC(=O)c2ccccc21`, the Ki in test [2] came out at 200 nM. Besides, the Ratio Ki in test [1] was determined as 11.8.

With `CN(C)C(=O)CN1Cc2cnn(C)c2Nc2ccccc21`, in test [2], the Ki was over 10000 nM.

With `CCN(CC)C(=O)CN1Cc2cnn(C)c2Nc2ccccc21`, in test [2], the Ki came out at 493 nM. The Ratio Ki in test [1] is 4.6.

In the case of `CCN(CC)C(=O)Cn1c2ccccc2c2ccccc21`, in test [1], the Ratio Ki came out at 5.9.

Take `CCN(Cc1ccccc1)C(=O)CN1c2ccccc2NC(=O)c2ccccc21`: the Ki in test [2] amounted to 15.8 nM. The Ratio Ki in test [1] is 6.2.

For `CN(C)C(=O)CN1c2ccccc2NC(=O)c2ccccc21`, in test [2], the Ki is over 10000 nM.

Regarding `CCN(Cc1ccccc1)C(=O)Cc1c(-c2ccc(OC)cc2)nn2c(C)cc(C)nc12`, the Ki in test [2] amounted to 6.2 nM. In test [1], the Ratio Ki was determined as 13.

Turning to `CCN(Cc1ccccc1)C(=O)Cn1c2ccccc2c2ccccc21`, the Ratio Ki in test [1] turned out to be 5.

Take `CN(Cc1ccccc1)C(=O)CN1Cc2cnn(C)c2Nc2ccccc21`: in test [2], the Ki is 41.3 nM. The Ratio Ki in test [1] was determined as 4.8.
